Assay results: patent publication US7981903B2, “2-[2-{phenylamino}-1H-pyrrolo[2,3-D]pyrimidin-4-yl)amino] benzamide derivatives as IGF-1R inhibitors for the treatment of cancer” (GlaxoSmithKline LLC, priority 2007, dated 2011)
pIC50: −log10 of the molar value.

Experiments:
[1] = molecular target: T1, NIH-3T3 cells overexpressing human IGF-1R (Homo sapiens, UniProt P08069); experiment: IGF-1R cellular autophosphorylation (DELFIA); assay type: cell-based
T1 construct: expressed in transfected cells; host or cells: NIH-3T3 (mouse fibroblasts)
Outline: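 Receptor autophosphorylation measured by DELFIA, capturing IGF-1R or IRβ and detecting with europium anti-pTyr, reported as percent of IGF-1- or insulin-stimulated signal. Compounds (30 uM to 1.5 nM) added 2 h before ligand, then 15 min stimulation (IGF-1 30 ng/ml or insulin 3 ug/ml).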

[2] = molecular target: T2, human IR (hIR) (Homo sapiens, UniProt P06213); experiment: TR-FRET kinase assay of purified hIR; assay type: biochemical; settings: activated hIR 0.5 nM, 10 μM ATP, values given as pIC50 category
T2 construct: containing amino acid residues 979-1382 of human IR; made in house; host or cells: Sf9 cells (baculovirus), same process as hIGF1R

[3] = molecular target: T3, human IGF1R (hIGF1R) (Homo sapiens, UniProt P08069); experiment: TR-FRET kinase assay of purified hIGF1R; assay type: biochemical; settings: activated hIGF1R 0.5 nM, 10 μM ATP, values given as pIC50 category, read-out: IGF-1R pIC50 (converted)
T3 construct: containing amino acid residues 957-1367 of human IGF1R; made in house; host or cells: Sf9 cells (baculovirus)
T3 sequence (P08069 957-1367): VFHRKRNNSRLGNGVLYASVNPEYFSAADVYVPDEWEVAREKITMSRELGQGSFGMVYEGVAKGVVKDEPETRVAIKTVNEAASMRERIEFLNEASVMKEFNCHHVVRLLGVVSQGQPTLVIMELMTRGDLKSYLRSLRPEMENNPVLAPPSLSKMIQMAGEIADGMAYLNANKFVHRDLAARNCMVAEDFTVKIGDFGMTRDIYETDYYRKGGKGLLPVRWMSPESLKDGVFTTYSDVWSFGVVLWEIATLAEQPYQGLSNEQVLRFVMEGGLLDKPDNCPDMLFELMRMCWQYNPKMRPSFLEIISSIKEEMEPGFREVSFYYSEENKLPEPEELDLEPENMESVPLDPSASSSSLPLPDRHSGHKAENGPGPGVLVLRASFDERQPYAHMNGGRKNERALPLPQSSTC

T1 sequence (P08069 31-1367): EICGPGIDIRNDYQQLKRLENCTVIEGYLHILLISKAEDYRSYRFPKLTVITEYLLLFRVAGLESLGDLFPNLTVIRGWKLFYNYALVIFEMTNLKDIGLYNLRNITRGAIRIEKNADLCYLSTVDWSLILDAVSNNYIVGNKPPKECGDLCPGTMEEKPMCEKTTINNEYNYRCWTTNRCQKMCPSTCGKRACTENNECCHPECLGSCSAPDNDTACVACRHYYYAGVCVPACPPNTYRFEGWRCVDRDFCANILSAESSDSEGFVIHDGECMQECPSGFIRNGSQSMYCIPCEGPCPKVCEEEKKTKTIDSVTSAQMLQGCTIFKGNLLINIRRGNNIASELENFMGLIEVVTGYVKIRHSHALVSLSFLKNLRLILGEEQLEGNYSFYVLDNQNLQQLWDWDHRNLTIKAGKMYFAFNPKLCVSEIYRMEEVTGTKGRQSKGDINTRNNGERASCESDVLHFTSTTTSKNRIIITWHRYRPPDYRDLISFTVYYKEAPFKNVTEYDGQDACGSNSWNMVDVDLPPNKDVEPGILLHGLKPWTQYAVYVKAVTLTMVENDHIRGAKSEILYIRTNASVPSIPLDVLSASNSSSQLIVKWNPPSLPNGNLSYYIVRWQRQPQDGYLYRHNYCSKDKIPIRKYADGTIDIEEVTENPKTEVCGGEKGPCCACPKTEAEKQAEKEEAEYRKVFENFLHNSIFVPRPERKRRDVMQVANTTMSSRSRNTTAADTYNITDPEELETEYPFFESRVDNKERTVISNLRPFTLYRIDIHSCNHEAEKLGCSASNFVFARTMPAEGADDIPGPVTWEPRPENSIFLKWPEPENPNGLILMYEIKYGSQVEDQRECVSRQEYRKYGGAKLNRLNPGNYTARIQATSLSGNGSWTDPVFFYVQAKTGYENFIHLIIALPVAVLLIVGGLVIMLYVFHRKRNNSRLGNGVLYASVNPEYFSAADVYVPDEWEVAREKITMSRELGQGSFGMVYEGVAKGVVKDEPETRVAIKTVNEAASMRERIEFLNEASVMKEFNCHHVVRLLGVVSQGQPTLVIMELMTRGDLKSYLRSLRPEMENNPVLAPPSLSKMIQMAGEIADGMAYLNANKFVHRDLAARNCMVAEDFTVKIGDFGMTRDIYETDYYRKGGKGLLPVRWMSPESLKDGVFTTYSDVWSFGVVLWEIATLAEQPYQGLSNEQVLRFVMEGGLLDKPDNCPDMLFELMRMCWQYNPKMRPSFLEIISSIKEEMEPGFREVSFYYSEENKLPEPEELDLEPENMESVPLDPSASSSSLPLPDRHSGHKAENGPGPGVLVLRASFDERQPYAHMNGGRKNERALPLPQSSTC
T2 sequence (P06213 979-1382): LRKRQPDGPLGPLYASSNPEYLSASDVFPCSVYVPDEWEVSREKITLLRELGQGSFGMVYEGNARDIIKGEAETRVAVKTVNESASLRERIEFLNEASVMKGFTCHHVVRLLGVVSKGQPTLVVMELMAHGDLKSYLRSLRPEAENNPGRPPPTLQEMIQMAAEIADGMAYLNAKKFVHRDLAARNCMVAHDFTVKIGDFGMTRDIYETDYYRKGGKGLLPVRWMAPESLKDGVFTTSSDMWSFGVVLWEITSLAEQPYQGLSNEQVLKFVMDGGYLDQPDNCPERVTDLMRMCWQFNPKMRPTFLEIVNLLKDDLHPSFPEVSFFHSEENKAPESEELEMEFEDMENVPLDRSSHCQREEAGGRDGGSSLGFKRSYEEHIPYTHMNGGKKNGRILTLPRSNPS

SMILES | pIC50 [1] | pIC50 [2] | IC50 [3] [nM]
COc1cc(N2CCC(C3CCN(CCS(C)(=O)=O)CC3)CC2)ccc1Nc1nc(Nc2cccc(F)c2C(N)=O)c2cc[nH]c2n1 [Example 112, 2-fluoro-6-({2-[(2-(methyloxy)-4-{1′-[2-(methylsulfonyl)ethyl]-4,4′-bipiperidin-1-yl}phenyl)amino]-1H-pyrrolo[2,3-d]pyrimidin-4-yl}amino)benzamide] | 6.30 to 7.00 | 8.40 to 8.90 | 1.26 to 3.98
COc1cc(N2CCC(N3CCN(CCS(C)(=O)=O)CC3)CC2)ccc1Nc1nc(Nc2cccc(F)c2C(N)=O)c2cc[nH]c2n1 [Example 115, 2-fluoro-6-[(2-{[2-(methyloxy)-4-(4-{4-[2-(methylsulfonyl)ethyl]-1-piperazinyl}-1-piperidinyl)phenyl]amino}-1H-pyrrolo[2,3-d]pyrimidin-4-yl)amino]benzamide] | 6.30 to 7.00 | 8.40 to 8.90 | 1.26 to 3.98
COc1cc2c(cc1Nc1nc(Nc3cccc(F)c3C(N)=O)c3cc[nH]c3n1)CN(C(=O)CN(C)C)CC2 [Example 123, 2-[(2-{[2-(N,N-dimethylglycyl)-6-(methyloxy)-1,2,3,4-tetrahydro-7-isoquinolinyl]amino}-1H-pyrrolo[2,3-d]pyrimidin-4-yl)amino]-6-fluorobenzamide] | 6.30 to 7.00 | 8.40 to 8.90 | 1.26 to 3.98
CCNC(=O)c1c(F)cccc1Nc1nc(Nc2cc3c(cc2OC)CCN3C(=O)CN(C)C)nc2[nH]ccc12 [Example 126, 2-[(2-{[1-(N,N-dimethylglycyl)-5-(methyloxy)-2,3-dihydro-1H-indol-6-yl]amino}-1H-pyrrolo[2,3-d]pyrimidin-4-yl)amino]-N-ethyl-6-fluorobenzamide] | 6.30 to 7.00 | 8.40 to 8.90 | 1.26 to 3.98
COc1cc2c(cc1Nc1nc(Nc3cccc(F)c3C(N)=O)c3cc[nH]c3n1)N(C(=O)CN)CC2 [Example 141, 2-fluoro-6-[(2-{[1-glycyl-5-(methyloxy)-2,3-dihydro-1H-indol-6-yl]amino}-1H-pyrrolo[2,3-d]pyrimidin-4-yl)amino]benzamide] | < 6.30 | 8.40 to 8.90 | 1.26 to 3.98
COc1cc2c(cc1Nc1nc(Nc3cc(F)cc(F)c3C(=O)NC(C)C)c3cc[nH]c3n1)N(C(=O)CN(C)C)CC2 [Example 153, 2-[(2-{[1-(N,N-dimethylglycyl)-5-(methyloxy)-2,3-dihydro-1H-indol-6-yl]amino}-1H-pyrrolo[2,3-d]pyrimidin-4-yl)amino]-4,6-difluoro-N-(1-methylethyl)benzamide] | 6.30 to 7.00 | 8.40 to 8.90 | 1.26 to 3.98
COc1cc2c(cc1Nc1nc(Nc3cc(F)cc(F)c3C(=O)NCC(C)C)c3cc[nH]c3n1)N(C(=O)CN(C)C)CC2 [Example 154, 2-[(2-{[1-(N,N-dimethylglycyl)-5-(methyloxy)-2,3-dihydro-1H-indol-6-yl]amino}-1H-pyrrolo[2,3-d]pyrimidin-4-yl)amino]-4,6-difluoro-N-(2-methylpropyl)benzamide] | 6.30 to 7.00 | 8.40 to 8.90 | 1.26 to 3.98
COc1cc2c(cc1Nc1nc(Nc3cc(F)cc(F)c3C(=O)NCc3ccc(F)cc3)c3cc[nH]c3n1)N(C(=O)CN(C)C)CC2 [Example 155, 2-[(2-{[1-(N,N-dimethylglycyl)-5-(methyloxy)-2,3-dihydro-1H-indol-6-yl]amino}-1H-pyrrolo[2,3-d]pyrimidin-4-yl)amino]-4,6-difluoro-N-[(4-fluorophenyl)methyl]benzamide] | 6.30 to 7.00 | 8.40 to 8.90 | 1.26 to 3.98
CCCNC(=O)c1c(F)cccc1Nc1nc(Nc2cc3c(cc2OC)CCN3C(=O)CN(C)C)nc2[nH]ccc12 [Example 156, 2-[(2-{[1-(N,N-dimethylglycyl)-5-(methyloxy)-2,3-dihydro-1H-indol-6-yl]amino}-1H-pyrrolo[2,3-d]pyrimidin-4-yl)amino]-6-fluoro-N-propylbenzamide] | 6.30 to 7.00 | 8.40 to 8.90 | 1.26 to 3.98
COc1cc2c(cc1Nc1nc(Nc3cccc(F)c3C(=O)NCC(C)C)c3cc[nH]c3n1)N(C(=O)CN(C)C)CC2 [Example 157, 2-[(2-{[1-(N,N-dimethylglycyl)-5-(methyloxy)-2,3-dihydro-1H-indol-6-yl]amino}-1H-pyrrolo[2,3-d]pyrimidin-4-yl)amino]-6-fluoro-N-(2-methylpropyl)benzamide] | 6.30 to 7.00 | 8.40 to 8.90 | 1.26 to 3.98
COc1cc2c(cc1Nc1nc(Nc3cccc(F)c3C(=O)NC(C)C)c3cc[nH]c3n1)N(C(=O)CN(C)C)CC2 [Example 158, 2-[(2-{[1-(N,N-dimethylglycyl)-5-(methyloxy)-2,3-dihydro-1H-indol-6-yl]amino}-1H-pyrrolo[2,3-d]pyrimidin-4-yl)amino]-6-fluoro-N-(1-methylethyl)benzamide] | 6.30 to 7.00 | 8.40 to 8.90 | 1.26 to 3.98
COc1cc2c(cc1Nc1nc(Nc3ccc(F)c(F)c3C(N)=O)c3cc[nH]c3n1)N(C(=O)CN(C)C)CCC2 [Example 162, 6-[(2-{[1-(N,N-dimethylglycyl)-6-(methyloxy)-1,2,3,4-tetrahydro-7-quinolinyl]amino}-1H-pyrrolo[2,3-d]pyrimidin-4-yl)amino]-2,3-difluorobenzamide] | > 7.00 | 9.00 to 9.60 | 1.26 to 3.98
CNC(=O)c1c(Nc2nc(Nc3cc4c(cc3OC)CCCN4C(=O)CN(C)C)nc3[nH]ccc23)ccc(F)c1F [Example 163, 6-[(2-{[1-(N,N-dimethylglycyl)-6-(methyloxy)-1,2,3,4-tetrahydro-7-quinolinyl]amino}-1H-pyrrolo[2,3-d]pyrimidin-4-yl)amino]-2,3-difluoro-N-methylbenzamide] | > 7.00 | 8.40 to 8.90 | 1.26 to 3.98
CCN(C)CC(=O)N1CCc2cc(OC)c(Nc3nc(Nc4cccc(F)c4C(N)=O)c4cc[nH]c4n3)cc21 [Example 166, 2-[(2-{[1-(N-ethyl-N-methylglycyl)-5-(methyloxy)-2,3-dihydro-1H-indol-6-yl]amino}-1H-pyrrolo[2,3-d]pyrimidin-4-yl)amino]-6-fluorobenzamide] | > 7.00 | 8.40 to 8.90 | 1.26 to 3.98

The next lines start with the values.

pIC50 [1] | pIC50 [2] | IC50 [3] [nM] | SMILES
> 7.00 | 9.00 to 9.60 | 0.251 to 1 | COc1cc(N2CCOC[C@@H]2C)ccc1Nc1nc(Nc2cc(F)c(F)cc2C(N)=O)c2cc[nH]c2n1 [Example 105, 4,5-difluoro-2-[(2-{[4-[(3S)-3-methyl-4-morpholinyl]-2-(methyloxy)phenyl]amino}-1H-pyrrolo[2,3-d]pyrimidin-4-yl)amino]benzamide]
> 7.00 | 9.00 to 9.60 | 1.26 to 3.98 | COc1cc(N2CCC(N3CCN(S(C)(=O)=O)CC3)CC2)ccc1Nc1nc(Nc2cccc(F)c2C(N)=O)c2cc[nH]c2n1 [Example 113, 2-fluoro-6-({2-[(2-(methyloxy)-4-{4-[4-(methylsulfonyl)-1-piperazinyl]-1-piperidinyl}phenyl)amino]-1H-pyrrolo[2,3-d]pyrimidin-4-yl}amino)benzamide]
> 7.00 | 8.40 to 8.90 | 1.26 to 3.98 | COc1cc(N2CCC(N3CCN(CCF)CC3)CC2)ccc1Nc1nc(Nc2cccc(F)c2C(N)=O)c2cc[nH]c2n1 [Example 114, 2-fluoro-6-[(2-{[4-{4-[4-(2-fluoroethyl)-1-piperazinyl]-1-piperidinyl}-2-(methyloxy)phenyl]amino}-1H-pyrrolo[2,3-d]pyrimidin-4-yl)amino]benzamide]
> 7.00 | 8.40 to 8.90 | 1.26 to 3.98 | CNC(=O)c1c(F)cccc1Nc1nc(Nc2cc3c(cc2OC)C(C)(C)CN3C(=O)CN(C)C)nc2[nH]ccc12 [Example 127, 2-[(2-{[1-(N,N-dimethylglycyl)-3,3-dimethyl-5-(methyloxy)-2,3-dihydro-1H-indol-6-yl]amino}-1H-pyrrolo[2,3-d]pyrimidin-4-yl)amino]-6-fluoro-N-methylbenzamide]
> 7.00 | 8.40 to 8.90 | 1.26 to 3.98 | CCN(CC)CC(=O)N1CCc2cc(OC)c(Nc3nc(Nc4cccc(F)c4C(N)=O)c4cc[nH]c4n3)cc21 [Example 136, 2-[(2-{[1-(N,N-diethylglycyl)-5-(methyloxy)-2,3-dihydro-1H-indol-6-yl]amino}-1H-pyrrolo[2,3-d]pyrimidin-4-yl)amino]-6-fluorobenzamide]
> 7.00 | 9.00 to 9.60 | 1.26 to 3.98 | COc1cc2c(cc1Nc1nc(Nc3cccc(F)c3C(N)=O)c3cc[nH]c3n1)N(C(=O)CN1CCCC1)CC2 [Example 138, 2-fluoro-6-[(2-{[5-(methyloxy)-1-(1-pyrrolidinylacetyl)-2,3-dihydro-1H-indol-6-yl]amino}-1H-pyrrolo[2,3-d]pyrimidin-4-yl)amino]benzamide]
> 7.00 | 8.40 to 8.90 | 1.26 to 3.98 | CNC(=O)c1c(F)cccc1Nc1nc(Nc2cc3c(cc2OC)CCN3C(=O)CN2CCCC2)nc2[nH]ccc12 [Example 139, 2-fluoro-N-methyl-6-[(2-{[5-(methyloxy)-1-(1-pyrrolidinylacetyl)-2,3-dihydro-1H-indol-6-yl]amino}-1H-pyrrolo[2,3-d]pyrimidin-4-yl)amino]benzamide]
> 7.00 | 8.40 to 8.90 | 1.26 to 3.98 | CNCC(=O)N1CCc2cc(OC)c(Nc3nc(Nc4cccc(F)c4C(N)=O)c4cc[nH]c4n3)cc21 [Example 142, 2-fluoro-6-[(2-{[1-(N-methylglycyl)-5-(methyloxy)-2,3-dihydro-1H-indol-6-yl]amino}-1H-pyrrolo[2,3-d]pyrimidin-4-yl)amino]benzamide]
